Data on 3 compounds can be found in publication PMC6857474, “Differential Effects of the Mitochondria-Active Tetrapeptide SS-31 (D-Arg-dimethylTyr-Lys-Phe-NH2) and Its Peptidase-Targeted Prodrugs in Experimental Acute Kidney Injury” (Frontiers in Pharmacology, 2019).

The nature of one data set: in vivo. As to conditions: male, mouse, ip, 30 mg/kg. How it is done: For PK evaluation, SS-31 was administered i.p. to male mice in suspension (gelatine/saline 7.5%/0.62% in water) using an administration volume of 4 ml/kg. Blood samples were collected in tubes containing EDTA as an anticoagulant, and plasma was separated by centrifugation and stored at −80°C. Liver and kidney samples (∼100 mg aliquots) were homogenized in three volumes of water using Precellys tissue homogenization tubes (precellys.com). Twenty-five microliters of each tissue homogenate was further diluted with 25 µl blank plasma to produce the final tissue homogenate for extraction. Prepared samples were stored at −20°C before analysis.
All samples were analyzed using protein precipitation followed by LC-MS/MS analysis. Briefly, 50 µl plasma or final tissue homogenate was mixed with 50 µl 0.5 M HClO4/acetonitrile 9/1 (containing 200 ng/ml bosentan as an internal standard). Samples were stirred and 300 µl water was added, followed by centrifugation at 5600 rpm (4°C, 10 min). Ten microliters of supernatant was analyzed by LC/MS. Calibration standards in plasma were prepared the same way. The LC columns and conditions used were as follows: Phenomenex, Polar RP, 4 µm, and 50 × 2.1 mm at 0.4-ml/min flow rate with a 3-min gradient from 95% solvent A to 95% solvent B (solvent A: water/acetonitrile/HCOOH, 90:10:0.1 with 10 mM NH4 formate; solvent B: water/ACN/HCOOH, 10:90:0.1 with 10 mM NH4 formate). Mass spectrometric conditions were as follows: Thermo TSQ Vantage with positive heated electrospray ionization in MS/MS mode. Mass transitions of the compounds were m/z 320.7 to 119.9. Relative concentrations of the drug and metabolites were established by the percentage of peak area ratio compared to time zero spiked compounds. PK parameters for all studies were calculated using Phoenix WinNonlin Software.

The nature of data set [1]: Stability in mouse plasma at 37°C. Type of data set: in vitro ADME. As to conditions: for Stability [% of T0] / Release of SS-31 from α-Glu-SS-31: 1 μM; for remaining at 0.5 h, 1 µM / remaining at 1 h, 1 µM / remaining at 3 h, 1 µM / remaining at 5 h, 1 µM: heparinized mouse plasma, read-out: Stability [% of T0]. How it is done:
Finally, we determined if α-Glu functionalization of SS-31 would improve the plasma stability of the compound. SS-31 or α-Glu-SS-31 (at 1 µM concentration) was added to heparinized mouse plasma, and the aliquots were incubated at 37°C for various time points before analysis ( Table 2 ). After a rapid decrease of α-Glu-SS-31 concentration, associated with the appearance of free SS-31, in mouse plasma, the concentration of both compounds remained stable for up to 5 h, whereas SS-31 concentration decreased regularly during the same period of time.

Data set [2] deals with T1, aminopeptidase A (APA) (Rattus norvegicus, UniProt P50123).
T1 construct: These cells express high levels of APA and γ-GT activities and can be used to measure kinetics in living cells; endogenous in cells; host or cells: EC219 rat brain-derived endothelial cells
T1 sequence (P50123 whole entry): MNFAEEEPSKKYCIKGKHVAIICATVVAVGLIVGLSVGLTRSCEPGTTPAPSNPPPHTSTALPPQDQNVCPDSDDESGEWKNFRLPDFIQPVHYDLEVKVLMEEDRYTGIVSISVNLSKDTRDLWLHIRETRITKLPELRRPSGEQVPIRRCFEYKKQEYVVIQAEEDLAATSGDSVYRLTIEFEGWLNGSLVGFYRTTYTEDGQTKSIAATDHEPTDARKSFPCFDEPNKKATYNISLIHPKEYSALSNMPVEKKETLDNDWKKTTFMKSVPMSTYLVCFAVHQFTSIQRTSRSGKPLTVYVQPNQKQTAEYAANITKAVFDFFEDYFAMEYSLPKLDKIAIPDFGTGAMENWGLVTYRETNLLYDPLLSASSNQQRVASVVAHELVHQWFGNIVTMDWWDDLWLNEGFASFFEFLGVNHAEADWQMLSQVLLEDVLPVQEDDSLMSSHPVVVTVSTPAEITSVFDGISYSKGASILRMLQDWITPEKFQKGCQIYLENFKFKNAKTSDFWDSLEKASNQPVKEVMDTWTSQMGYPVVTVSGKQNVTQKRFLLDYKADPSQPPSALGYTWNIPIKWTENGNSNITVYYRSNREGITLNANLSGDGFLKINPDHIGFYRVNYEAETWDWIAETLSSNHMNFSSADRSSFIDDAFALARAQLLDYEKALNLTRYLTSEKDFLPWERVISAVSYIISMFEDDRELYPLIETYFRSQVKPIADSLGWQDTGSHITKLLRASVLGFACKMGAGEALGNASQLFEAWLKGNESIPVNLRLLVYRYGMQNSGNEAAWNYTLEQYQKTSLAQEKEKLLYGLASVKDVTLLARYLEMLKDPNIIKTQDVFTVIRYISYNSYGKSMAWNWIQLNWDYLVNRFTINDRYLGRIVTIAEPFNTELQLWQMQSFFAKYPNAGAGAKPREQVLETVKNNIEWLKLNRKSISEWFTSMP
In words: APA enzymatic activity in intact living EC219 cells (α-Glu-AMC substrate). Type of data set: cell-based. The method, then: The preparation and characterization of rat brain-derived EC219 endothelial cells were previously described ([Juillerat-Jeanneret et al., 1992]). These cells express high levels of APA and γ-GT activities and can be used to measure kinetics in living cells as APA and γ-GT-positive representative cell models. The cells were grown in Dulbecco’s modified Eagle medium (DMEM) containing 1 g/L glucose, 10% heat-inactivated fetal calf serum (FCS), and antibiotics on uncoated cell culture plastic plates and flasks. MDCK and LLCPK cells were obtained from the American Tissue Culture Collection (ATCC, Manassas, VA, USA) and were grown in DMEM containing 4.5 g/L glucose, 10% FCS, and antibiotics. mCCD, and mDCT cells were a kind gift from O. Bonny (UNIL, Lausanne, Switzerland) and were cultured in DMEM (Ham’s F12 1:1 vol/vol, 60 nM sodium selenate, 5 μg/ml transferrin, 50 nM dexamethasone, 1 nM triiodothyronine, 10 ng/ml epidermal growth factor, 5 μg/ml insulin) and 2% FCS. The characteristics of the used cell lines are shown in Supplementary Table S2 .
Stock solutions of α-Glu-AMC (APA) and γ-Glu-AMC and Gly-Gly (γ-GT) substrates, all from Bachem, were prepared at 10 mM in DMSO. EC219 cells were grown to confluence in 96-well plates (Corning, NY, USA), then the culture medium was removed, and the cell layers washed once with 100 µl PBS and 100 µl of substrates at decreasing concentrations (320–10 µM) of α-Glu-AMC or γ-Glu-AMC and 20 mM Gly-Gly substrates diluted in PBS and increasing concentrations (0–20 µM) of SS-31 analogs were added. The increase in […] was measured at 37°C in a thermostated fluorescence multiwell-plate reader (CytoFluor Series 4000; PerSeptive Biosystems, MA, USA) at λex = 360 nm/λem = 460 nm using the linear portion of the curves. The kinetics values were then graphically determined or according to Wu and colleagues ([Wu et al., 2011]).
(A) Intact living EC219 cells were exposed to increasing concentrations of either amastatin (left panel) or acivicin (right panel), two well-characterized enzymatic activity inhibitors of APA or γ-GT, respectively. The activities of the enzymes aminopeptidase A (APA) or γ-glutamyltranspeptidase (γ-GT) were determined using 40 µM of the substrates (S), α-Glu-AMC or γ-Glu-AMC, respectively. (B) Intact living EC219 cells were exposed to increasing concentrations [10-320 µM] of the APA α-Glu-AMC substrate, in the presence of increasing concentrations of SS-31 or α-Glu-SS-31, and the increase of free AMC fluorescence was recorded. Data were analyzed graphically. (DMSO 0.2% was present in all samples).

Data set [3] deals with T2, aminopeptidase A (APA) (Mus musculus, UniProt P16406).
T2 construct: from tissue; host or cells: frozen kidney sections of ADR-treated BALB/c male mice
T2 sequence (P16406 1-945): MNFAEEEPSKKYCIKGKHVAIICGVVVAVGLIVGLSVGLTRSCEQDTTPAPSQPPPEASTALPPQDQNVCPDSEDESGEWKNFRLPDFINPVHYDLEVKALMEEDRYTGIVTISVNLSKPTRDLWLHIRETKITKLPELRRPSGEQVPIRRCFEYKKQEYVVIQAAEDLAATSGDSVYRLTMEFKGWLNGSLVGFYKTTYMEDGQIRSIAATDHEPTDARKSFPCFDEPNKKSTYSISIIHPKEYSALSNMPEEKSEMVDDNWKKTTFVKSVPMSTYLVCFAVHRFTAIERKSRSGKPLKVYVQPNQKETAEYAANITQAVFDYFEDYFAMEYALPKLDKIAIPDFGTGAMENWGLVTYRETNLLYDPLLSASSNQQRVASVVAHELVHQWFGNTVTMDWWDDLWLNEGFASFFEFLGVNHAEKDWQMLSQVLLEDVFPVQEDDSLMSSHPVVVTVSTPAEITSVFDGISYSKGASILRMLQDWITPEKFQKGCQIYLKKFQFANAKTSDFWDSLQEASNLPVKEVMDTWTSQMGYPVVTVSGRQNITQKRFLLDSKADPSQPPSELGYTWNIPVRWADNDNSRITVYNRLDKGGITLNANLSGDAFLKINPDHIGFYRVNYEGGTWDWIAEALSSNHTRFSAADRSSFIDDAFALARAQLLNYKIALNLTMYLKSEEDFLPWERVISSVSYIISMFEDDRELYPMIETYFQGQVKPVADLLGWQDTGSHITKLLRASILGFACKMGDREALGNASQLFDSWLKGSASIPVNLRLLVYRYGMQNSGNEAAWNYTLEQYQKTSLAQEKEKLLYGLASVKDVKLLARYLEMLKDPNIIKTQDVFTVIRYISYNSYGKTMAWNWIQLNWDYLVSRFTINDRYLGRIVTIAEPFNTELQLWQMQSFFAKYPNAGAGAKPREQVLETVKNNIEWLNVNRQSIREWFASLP
In words: Histoenzymography of APA activity on frozen kidney sections of ADR-treated mice. As to conditions: kidney sections of ADR-exposed mice, α-Glu-βNA substrate, 37°C. Type of data set: biochemical. How it is done:
Enzymatic activities were evaluated by histoenzymography on OCT-embedded frozen kidneys sections (7 µm), as previously described ([Juillerat-Jeanneret et al., 1992]; [Juillerat-Jeanneret et al., 2000]; [Juillerat-Jeanneret et al., 2003]). Briefly, slides were fixed for 5 min in cold (−20°C) acetone, air dried at room temperature, rehydrated for 5 min in 0.9% NaCl, and exposed to the α-Glu-4-methoxy-β-naphtylamide (APA; Bachem) or γ-Glu-4-methoxy-β-naphtylamide (γ-GT; Serva) substrates and Fast Blue B (Sigma-Aldrich) at 37°C for 15 to 60 min until a red coloration was visible. The slides were washed in distilled water, counterstained with hematoxylin (Mayer) for 1 min, rinsed under tap water and then with Scott solution for 1 min, and mounted in Aquamount (Immu-mount; Thermo Shandon, Pittsburgh, PA, USA) and analyzed with a Nikon Eclipse E800 microscope and digital DXM1200 camera using ACT-1 software.
Sequential sections (7 µm) of frozen OCT-embedded kidneys of adriamycin (ADR)-treated mice were exposed at 37°C to β-methoxynaphthylamide (β-NA) specific substrates of aminopeptidase A (α-Glu-βNA, upper panels) or γ-glutamyltranspeptidase (γ-Glu-βNA, lower panels) and Fast Blue B, in the absence (none) or the presence of SS-31, α-Glu-SS-31 or γ-Glu-SS-31. The sections were then counterstained with light hematoxylin reagent. The enzymatic activity is visualized as a red precipitate. […]

Read-outs that look alike come from different tables or passages of the source. Non-standard residues stand in square brackets, D forms with d. Residues, ends and D or L forms follow the SMILES beside them. Dmt = Cc1cc(O)cc(C)c1C[C@H](N)C(=O)O

For the compound `Cc1cc(O)cc(C)c1C[C@H](NC(=O)[C@H](N)CCCNC(=N)N)C(=O)N[C@@H](CCCCN)C(=O)N[C@@H](Cc1ccccc1)C(N)=O` [SS-31, D-Arg-dimethylTyr-Lys-Phe-NH2] (H-[dR][Dmt]KF-NH2), in the data set “in vivo” (kidney), the area under the curve AUC(0-inf) came to 31300 ng·h/mL, the area under the curve AUC(0-t) is 27800 ng·h/mL, the maximum concentration (Cmax) was found to be 17200 ng/mL and the Tmax is 1 h. In “in vivo” (kidney), this compound showed a half-life of 1.1 h and a level at time molar of about 140 nM. Moreover, in “in vivo” (liver), the area under the curve AUC(0-inf) was determined as 22100 ng·h/mL, the area under the curve AUC(0-t) was found to be 20700 ng·h/mL, the Cmax worked out at 12700 ng/mL and the time to peak (Tmax) came to 1 h. The compound further had a half-life in the data set “in vivo” (liver) of 0.9 h. For the same compound, in the data set “in vivo” (plasma), the area under the curve AUC(0-inf) worked out at 21100 ng·h/mL, the AUC(0-t) was 21100 ng·h/mL, the concentration peaked (Cmax) at 20000 ng/mL and the Tmax is 1 h. Moreover, in the data set “in vivo” (plasma), the half-life was 0.3 h. Besides, the “Stability [% of T0]” value in data set [1] (time 0 h) came out at 100%. In data set [1] (time 0.5 h), the remaining at 0.5 h, 1 µM was 89.3%. Besides, the remaining at 1 h, 1 µM in data set [1] (time 1 h) was 85.3%. In addition, the remaining at 3 h, 1 µM in data set [1] (time 3 h) stood at 50.1%. The remaining at 5 h, 1 µM in data set [1] (time 5 h) came out at 43%. In addition, 8.5 ± 3.8 µM corresponded to half-maximal inhibition on aminopeptidase A (APA) [2] (IC50).
`CC(C)C[C@@H](N)[C@H](O)C(=O)N[C@H](C(=O)N[C@H](C(=O)N[C@@H](CC(=O)O)C(=O)O)C(C)C)C(C)C` [amastatin]: the half-maximal inhibitory concentration (IC50) at aminopeptidase A (APA) [2] (intact living EC219 cells, 40 µM α-Glu-AMC, read-out: IC50 APA) was under 1 µM.
For `Cc1cc(O)cc(C)c1C[C@H](NC(=O)[C@@H](CCCNC(=N)N)NC(=O)[C@@H](N)CCC(=O)O)C(=O)N[C@@H](CCCCN)C(=O)N[C@@H](Cc1ccccc1)C(N)=O` [α-Glu-SS-31, H-Glu-D-Arg-DMT-Lys-Phe-NH 2 .2TFA] (H-E[dR][Dmt]KF-NH2), in data set [1] (time 0 h), the “Release of SS-31 from α-Glu-SS-31” value was 7.5% and the “Stability [% of T0]” value amounted to 100%. Besides, in data set [1] (time 0.5 h), the “Release of SS-31 from α-Glu-SS-31” value was 9% and the remaining at 0.5 h, 1 µM is 68.5%. In addition, in data set [1] (time 1 h), the “Release of SS-31 from α-Glu-SS-31” value was found to be 9% and the remaining at 1 h, 1 µM is 68.3%. In data set [1] (time 3 h), the “Release of SS-31 from α-Glu-SS-31” value came out at 10% and the remaining at 3 h, 1 µM turned out to be 66.9%. Also, in data set [1] (time 5 h), the “Release of SS-31 from α-Glu-SS-31” value was 9% and the remaining at 5 h, 1 µM is 65.8%. In addition, the “enzymatic activity of APA (histoenzymography)” value on aminopeptidase A (APA) [3] is “selectively inhibited”. This compound gave a 50% inhibitory concentration (IC50) on aminopeptidase A (APA) [2] of 13.7 ± 6.7 µM. On aminopeptidase A (APA) [2] (intact living EC219 cells), the “inhibition of APA activity” value is listed as “selective inhibition”.

As a reminder, the AUC(0-inf) is the area under the concentration-time curve extrapolated to infinity. Read a high AUC(0-inf) as more exposure. Usually AUC(0-t) stands for exposure summed from dosing to a finite time, without extrapolation to infinity. The low end stands for low exposure, the high end for high exposure. Broadly, the Cmax is the highest concentration seen after dosing. For orientation: Tmax means the time at which the peak concentration occurs. As a reminder, the half-life is the time needed for the level to fall by half in the phase considered. The low end stands for rapid decline, the high end for slow decline. The IC50 is the point on the concentration scale where inhibition reaches its midpoint.
